Results reported in patent publication US6642365B1, “Anti-(retro)viral conjugates of saccharides and acetamidino or guanidino compounds” (Yeda Research and Development Co. Ltd., priority 2001, dated 2003).
pIC50, pKd, pKi: −log10 of the molar value.

Assays:
[1] = test system: TAR RNA; experiment: Gel-shift binding to TAR RNA; parameters: species or system HIV-1
Experimental: (§1) The model Tat peptide (R52: […]) was prepared by the Weizmann Institute Chemical Services and was purified by reverse phase HPLC (C-18) (Lapidot et al., 1995). […] The RNA was transcriptionally labeled with α-^32P UTP, purified on a 12% polyacrylamide/7M urea gel (19:1 acrylamide:bis-acrylamide) and was eluted from the gel by 0.5M ammonium acetate, 10 mM magnesium acetate, 1 mM EDTA and 0.1% SDS. The sample was subjected to phenol extraction and the RNA was precipitated from 70% ethanol. Purified RNA was dissolved in diethyl pyrocarbonate-treated water (DEPC water), its concentration was determined by UV absorption at 260 nm and the specific radioactivity was determined by scintillation counting on a LS 1701 “Bruker” counter.
To study the affinity of the test compounds to TAR, gel-shift and gel-shift inhibition experiments were performed. The binding reaction mixtures (20 μl) contained ^32P-labeled TAR (18-44) RNA oligonucleotide (3-6 nM) and Tat R52 peptide (35-75 nM) in a binding buffer (10 mM Tris-HCl pH 7.5, 70 mM NaCl, 0.2 mM EDTA and 5% glycerol). The reaction mixtures were incubated for 10 minutes on ice and resolved by electrophoresis on a 10% non-denaturing polyacrylamide gel (40:1 acrylamide:bis-acrylamide) at 200V, for 3 h at 4° C. Gels were dried and visualized by autoradiography. Quantitations were obtained by optical densitometry of films. Alternatively, results were visualized by exposing the wet gels to Fuji phosphoimager plates, which were read on a “Storm 820” (Molecular Dynamics) phosphoimager. […]
Binding of aminoglycoside-arginine conjugates (AAC) to TAR RNA was measured by adding varying concentrations of each conjugate to reaction mixtures (20 μl) which contained 12 nM ^32P-labeled TAR RNA. The reactions were analyzed as described above.

[2] = target: Tat-TAR interaction; experiment: Gel-shift inhibition of Tat R52 peptide binding to TAR RNA; parameters: species or system HIV-1; conditions: for pKi: CI50 normalized to the conditions of Tao and Frankel, 1992, read-out: apparent Ki; for pIC50: TAR RNA 6 nM, 60 nM Tat R52, read-out: CI50 (the source's name)
Experimental: The model Tat peptide (R52: […]) was prepared by the Weizmann Institute Chemical Services and was purified by reverse phase HPLC (C-18) (Lapidot et al., 1995). A 31-nt TAR RNA fragment (5′-GGCCAGAUCUGAGCCUGGGAGCUCUCUGGCC-3′) containing the sequence 18-44 of the HIV LTR (Aboul-Ela et al., 1995) was transcribed in vitro by T7 RNA polymerase (Promega) from a synthetic single strand DNA template containing the 17 base double-stranded T7 promoter (both DNA oligonucleotides were prepared by the Weizmann Institute Chemical Services). The RNA was transcriptionally labeled with α-^32P UTP, purified on a 12% polyacrylamide/7M urea gel (19:1 acrylamide:bis-acrylamide) and was eluted from the gel by 0.5M ammonium acetate, 10 mM magnesium acetate, 1 mM EDTA and 0.1% SDS. The sample was subjected to phenol extraction and the RNA was precipitated from 70% ethanol. Purified RNA was dissolved in diethyl pyrocarbonate-treated water (DEPC water), its concentration was determined by UV absorption at 260 nm and the specific radioactivity was determined by scintillation counting on a LS 1701 “Bruker” counter.
To study the affinity of the test compounds to TAR, gel-shift and gel-shift inhibition experiments were performed. The binding reaction mixtures (20 μl) contained ^32P-labeled TAR (18-44) RNA oligonucleotide (3-6 nM) and Tat R52 peptide (35-75 nM) in a binding buffer (10 mM Tris-HCl pH 7.5, 70 mM NaCl, 0.2 mM EDTA and 5% glycerol). The reaction mixtures were incubated for 10 minutes on ice and resolved by electrophoresis on a 10% non-denaturing polyacrylamide gel (40:1 acrylamide:bis-acrylamide) at 200V, for 3 h at 4° C. Gels were dried and visualized by autoradiography. Quantitations were obtained by optical densitometry of films. Alternatively, results were visualized by exposing the wet gels to Fuji phosphoimager plates, which were read on a “Storm 820” (Molecular Dynamics) phosphoimager. Different concentrations of TAR RNA (6,12 and 20 nM) were titrated with various concentrations of Tat R52 in the binding reactions.
Binding inhibition by the monosaccharide derivatives was measured by adding several concentrations of each compound to reaction mixtures containing 60 nM Tat 52 and 6 nM ^32P TAR, attaining 100% binding of Tat TAR in the absence of inhibitors (Lapidot et al., 1995).

[3] = test system: TAR RNA; experiment: L-arginine-Amberlite affinity column elution of TAR RNA; type: binding, HIV-1; conditions: concentration that elutes 50% of TAR RNA from L-arginine-Amberlite affinity column
Experimental: as §1
The L-arginine-Amberlite resin was prepared as follows: Carboxyl groups of Amberlite IRC-50 resin were covalently modified with ethanolamine using 1-(3-dimethylaminopropyl) 3-ethylcarbodiimide, a water-soluble coupler. The hydroxy ethyleneamide resin obtained was washed and dried, and L-arginine (12-16 μmols per ml of resin) was coupled to the hydroxy groups of the resin via an isourea moiety using a standard cyanogen bromide protocol. The final concentration of arginine residues was 12-16 μmol per ml of resin. The swollen L-arginino-Amberlite resin (200 μl) was packed into a plastic mini-column and equilibrated with buffer containing 40 mM Tris HCl, pH 7.5, 250 mM NaCl, 0.5 mM EDTA and 5 mM MgCl2 (buffer A). Approximately 1 ng of ^32P-UTP labeled TAR RNA in buffer A was loaded on the column. The column was eluted 3 to 5 times with 400 μl portions of buffer A, until no radioactivity was detected in the eluent. […] Each of the test compounds was dissolved in buffer A and passed through the column in 300 μl portions. Radioactivity of the eluates was determined by scintillation counting on a LS 1701 “Bruker” counter. CE50 values, the concentrations of inhibitors eluting 50% of the radioactive material from the column, were determined.

Row | SMILES | concentration from which a complex with TAR RNA is formed ([1]; 20 nM TAR RNA) | CD50 ([1]; 50% binding, TAR RNA 20 nM) | pKd ([1]; CD50 normalized to the reported conditions (Calnan et al., 1991 b), read-out: apparent Kd) | pKi [2] | pIC50 [2] | CE50 [3]
1 | CN[C@@H]1[C@@H](O)[C@@H](O[C@@H]2[C@@H](O)[C@H](O[C@H]3O[C@H](CNC(=O)[C@@H](N)CCCNC(=N)N)CC[C@H]3NC(=O)[C@@H](N)CCCNC(=N)N)[C@@H](NC(=O)[C@@H](N)CCCNC(=N)N)C[C@H]2NC(=O)[C@@H](N)CCCNC(=N)N)OC[C@]1(C)O [R4GC1a, Tetraargininamido-gentamicin (C1a) conjugate] | ≥ 200 nM | 200 nM | ~7.70 |  |  | 
2 | COC1OC(CNC(=O)C(N)CCCNC(=N)N)C(O)C(O)C1O [RMMP, Methyl 6-deoxy6-(N-L-argininamido)-α-D-mannopyranoside] |  |  |  | ~3.80 | 2.74 | 310 mM
3 | CO[C@H]1O[C@H](CC#N)[C@@H](O)[C@H](O)[C@@H]1O [compound 4, Methyl 6-deoxy-6-cyano-α-D-mannopyranoside] |  |  |  |  | 1.34 | 1200 mM
4 | CO[C@H]1O[C@H](CN)[C@@H](O)[C@H](O)[C@@H]1O [compound 7, Methyl 6-deoxy-6-amino-α-D-mannopyranoside] |  |  |  |  | 1.25 | >1500 mM
5 | CO[C@@H]1O[C@H](C/C(N)=N/O)C(O)[C@H](O)[C@@H]1O (stereo partly drawn) [compound 9, Methyl 6-deoxy-α-D-mannoheptopyranuronic acid amidoxime] |  |  |  |  | < 1.30 | >1500 mM
6 | CO[C@H]1O[C@H](CNC(=N)N)[C@@H](O)[C@H](O)[C@@H]1O [compound 10, Methyl 6-deoxy-6-guanidino-α-D-mannopyranoside] |  |  |  | ~3.00 | 2.05 | 650 mM
7 | CO[C@@H]1O[C@H](CNC(C)=N)C(O)[C@H](O)[C@@H]1O (stereo partly drawn) [compound 11, Methyl 6-deoxy-6-(N-acetamidino)-α-D-mannopyranoside] |  |  |  | ~3.00 | 1.96 | 730 mM
